Several values for one entry are separate records, joined by “and”; a condition that tells them apart may be missing. Equal entries are not always repeated.
Tests used:
[1] = biological target: T1, LRRK2^KW (Homo sapiens, UniProt Q5S007); assay: DSF thermal stabilization of LRRK2^KW; type: binding; settings: DSF, LRRK2^KW, 10 μM inhibitor
T1 construct: LRRK2 R1847 to E2527; His6-Z-tag (TEV cleavable) (N, cleaved yes); host or cells: Sf9 insect cells (baculovirus)
T1 sequence (Q5S007 1847-2527): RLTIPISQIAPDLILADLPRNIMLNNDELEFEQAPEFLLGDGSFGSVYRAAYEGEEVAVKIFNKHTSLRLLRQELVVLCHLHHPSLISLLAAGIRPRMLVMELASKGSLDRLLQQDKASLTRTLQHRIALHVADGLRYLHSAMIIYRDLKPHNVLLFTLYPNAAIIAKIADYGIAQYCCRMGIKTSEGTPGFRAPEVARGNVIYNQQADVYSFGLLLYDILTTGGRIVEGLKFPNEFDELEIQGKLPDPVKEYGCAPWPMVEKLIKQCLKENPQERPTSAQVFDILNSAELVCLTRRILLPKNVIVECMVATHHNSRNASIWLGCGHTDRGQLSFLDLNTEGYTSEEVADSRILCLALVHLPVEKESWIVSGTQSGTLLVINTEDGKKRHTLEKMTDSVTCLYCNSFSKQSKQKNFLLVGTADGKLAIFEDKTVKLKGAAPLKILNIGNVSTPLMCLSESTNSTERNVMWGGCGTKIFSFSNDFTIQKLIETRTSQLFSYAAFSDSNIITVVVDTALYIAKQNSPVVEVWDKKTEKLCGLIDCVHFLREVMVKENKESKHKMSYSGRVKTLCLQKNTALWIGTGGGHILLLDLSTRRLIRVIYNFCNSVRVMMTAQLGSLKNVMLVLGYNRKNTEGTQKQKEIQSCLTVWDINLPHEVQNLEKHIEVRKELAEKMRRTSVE
Experimental: To characterize binding between small molecules and LRRK2^KW, induced thermal stabilization was measured by DSF according to previously established protocols ([47]). In brief, LRRK2^KW was diluted to 4 μM in 20 mM Hepes (pH 7.4), 150 mM NaCl, 0.5 mM TCEP, 0.5% glycerol, 20 μM GDP, and 2.5 mM MgCl2, and SYPRO Orange was added (1:1000, MilliporeSigma). Inhibitor (10 μM) to be tested was added to a final sample volume of 20 μl per well of a 96-well plate (white, Starlab). […] The fluorescence was plotted against the temperature, and the melting point (Tm) was determined as the minimum of the first derivative relative to the control.

[2] = biological target: T2, LRRK2^RCKW (Homo sapiens, UniProt Q5S007); assay: Biochemical LRRK2 activity assay (PhosphoSense, AssayQuant SOX peptide AQT0615); settings: for IC50: LRRK2^RCKW kinase activity, in vitro; for normalized response (LRRK2 activity): normalized to 0% (no kinase) and 100% (no inhibitor) control, two singlicate columns per compound
T2 construct: LRRK2 R1327 to E2527; His6-Z-tag (TEV cleavable) (N, cleaved yes); host or cells: Sf9 insect cells (baculovirus)
T2 sequence (Q5S007 1327-2527): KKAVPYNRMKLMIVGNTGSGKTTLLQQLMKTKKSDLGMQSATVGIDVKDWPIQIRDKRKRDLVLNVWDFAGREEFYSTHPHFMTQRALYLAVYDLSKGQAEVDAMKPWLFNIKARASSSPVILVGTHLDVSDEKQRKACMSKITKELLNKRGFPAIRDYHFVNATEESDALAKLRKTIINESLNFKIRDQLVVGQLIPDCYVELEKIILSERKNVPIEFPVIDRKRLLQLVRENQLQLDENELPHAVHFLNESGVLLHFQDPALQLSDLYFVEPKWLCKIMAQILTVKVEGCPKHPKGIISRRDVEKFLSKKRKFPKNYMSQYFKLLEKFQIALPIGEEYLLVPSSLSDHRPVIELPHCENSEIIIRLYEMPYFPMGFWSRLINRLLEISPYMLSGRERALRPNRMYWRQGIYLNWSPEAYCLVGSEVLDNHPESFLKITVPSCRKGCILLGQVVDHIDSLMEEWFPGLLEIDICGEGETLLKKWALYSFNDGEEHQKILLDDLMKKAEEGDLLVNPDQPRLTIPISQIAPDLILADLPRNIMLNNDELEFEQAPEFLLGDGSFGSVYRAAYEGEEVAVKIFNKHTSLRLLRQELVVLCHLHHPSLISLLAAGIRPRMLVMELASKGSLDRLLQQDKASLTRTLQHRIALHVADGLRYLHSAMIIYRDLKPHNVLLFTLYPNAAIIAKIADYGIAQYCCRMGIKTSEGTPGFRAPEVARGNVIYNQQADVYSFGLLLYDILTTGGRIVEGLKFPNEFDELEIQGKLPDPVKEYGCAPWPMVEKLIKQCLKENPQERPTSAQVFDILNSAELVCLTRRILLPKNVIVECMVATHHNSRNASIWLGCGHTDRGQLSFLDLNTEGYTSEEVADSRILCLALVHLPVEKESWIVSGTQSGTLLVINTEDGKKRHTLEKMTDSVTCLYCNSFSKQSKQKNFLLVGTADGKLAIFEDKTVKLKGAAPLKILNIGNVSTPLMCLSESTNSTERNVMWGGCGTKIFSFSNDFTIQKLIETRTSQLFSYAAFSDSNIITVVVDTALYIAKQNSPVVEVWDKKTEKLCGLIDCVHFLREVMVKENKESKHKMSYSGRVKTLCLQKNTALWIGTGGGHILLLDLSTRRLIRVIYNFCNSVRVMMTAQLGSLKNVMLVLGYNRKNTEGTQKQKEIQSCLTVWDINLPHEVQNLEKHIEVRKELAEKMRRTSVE
Experimental: Two wells per compound were used as 0% (without protein and compound) and 100% (without compound) control. […] The 0% control wells were filled with 10 μl of pure reaction buffer. With the ECHO, 5 nl of 100 mM ATP was pipetted into each well, the plates were centrifuged at 1500g for 2 min, and the reaction was incubated at room temperature for 4 hours. The fluorescence of the SOX-peptide after 360-nm excitation was measured at 487-nm emission with a PHERAstar plate reader (BMG Labtech). The IC50 values were calculated from a nonlinear regression of the log[inhibitor] versus the normalized response with GraphPad Prism 8 (www.graphpad.com/, RRID:SCR_002798).

∆Tm (K) [1] [K] | IC50 [2] [µM] | normalized response (LRRK2 activity) ([2]; log[inhibitor(mol)] -4.82391) | normalized response (LRRK2 activity) ([2]; log[inhibitor(mol)] -5.12494) | normalized response (LRRK2 activity) ([2]; log[inhibitor(mol)] -5.60206) | normalized response (LRRK2 activity) ([2]; log[inhibitor(mol)] -6.30103) | normalized response (LRRK2 activity) ([2]; log[inhibitor(mol)] -6.90309) | normalized response (LRRK2 activity) ([2]; log[inhibitor(mol)] -7.30103) | normalized response (LRRK2 activity) ([2]; log[inhibitor(mol)] -7.60206) | normalized response (LRRK2 activity) ([2]; log[inhibitor(mol)] -8.09691) | normalized response (LRRK2 activity) ([2]; log[inhibitor(mol)] -8.61979) | normalized response (LRRK2 activity) ([2]; log[inhibitor(mol)] -9.09691) | normalized response (LRRK2 activity) ([2]; log[inhibitor(mol)] -9.39794) | Structure (SMILES)
7.8 | 10.5 | 48.7254% and 32.1819% | 55.2664% and 57.3114% | 81.8607% and 85.9555% | 94.4496% and 98.762% | 100.265% and 101.228% | 105.467% and 108.576% | 105.158% and 64.9692% | 97.331% and 101.237% | 106.173% and 99.8401% | 141.905% and 102.383% | 109.403% and 105.477% | Cc1ccc(-c2c[nH]c3ncnc(N4CCOCC4)c23)cc1NC(=O)C1(C(=O)Nc2ccc(F)cc2)CC1 [Compound 7]
1.8 | 9.58 ± 0.565 | – | 55.8562% and 55.0924% | 86.5066% and 85.5833% | – | 96.7944% and 101.803% | 96.688% and 103.084% | 102.717% and 103.476% | 97.9836% and 98.7571% | 100.995% and 103.804% | 100.705% and 102.156% | 104.655% and 105.003% | Cc1ccc(NC(=O)C2(C(=O)Nc3ccc(F)cc3)CC2)cc1-c1c[nH]c2ncnc(N3CCOCC3)c12 [Compound 5]
4.3 | 3.18 ± 0.134 | – | 28.5996% and 28.8703% | 54.9087% and 59.3757% | 85.68% and 83.1467% | 102.663% and 58.1284% | 103.229% and 99.9077% | 100.894% and 96.1562% | 96.775% and 100.111% | 99.9803% and 105.134% | 138.579% and 106.168% | 136.224% and 108.416% | CN1CCc2cc(NC(=O)C3(C(=O)Nc4cccc(-c5c[nH]c6ncnc(N7CCOCC7)c56)c4)CC3)ccc2C1 [Compound 10]
0.0 | 2.82 ± 1.7 | 44.1151% and 42.1018% | 30.8718% and 33.6962% | 50.116% and 50.3008% | 30.7392% and 30.2826% | 79.3769% and 75.1697% | 94.0291% and 93.4725% | 99.2059% and 99.0146% | 90.4133% and 94.0334% | 94.5074% and 96.3707% | 98.4515% and 93.6442% | 99.1494% and 99.7973% | COc1cc(C(=O)N2CCOCC2)c(F)cc1Nc1nc(N(C)C)c2c(-c3cccc(NC(=O)Nc4cc(C(C)(C)C)nn4-c4ccc(C)cc4)c3)c[nH]c2n1 [Compound 34]

— article PMC12136037, “Type II kinase inhibitors that target Parkinson’s disease–associated LRRK2” (Science Advances, 2025)
